Columns and labels:
B-RAF = biological target: T1, B-RAF (Homo sapiens, UniProt P15056, V600E); assay: DELFIA Kinase Assay; format: biochemical; conditions: 100 μM ATP, GST-MEK substrate
T1 construct: made in house
Outline: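 Recombinant B-RAF (V600E) with GST-MEK substrate was preincubated with compound for 10 min at room temperature, then reacted with 100 μM ATP for 45 min on milk-preblocked wells, with antibody detection by DELFIA europium fluorescence. Response is taken as % of DMSO control after empty-vector blank subtraction; IC50 is from a variable-slope sigmoidal fit, mean of usually three independent runs.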

pERK = assay: Cell Based Phospho-ERK Assay; conditions: 6 h, 6 hours incubation with test compound
Protocol: Biological Methods—Cell Based Phosho-ERK Assay
Compounds were assessed using a cell-based assay which was performed according to the following protocol.
Plate out 16,000 cells/well in 99 μL medium in a 96-well plate.
• 1. Add 1 μL inhibitor to the cells (total […] solution). • 2. Incubate the cells with test compound for 6 hours at 37° C. • 3. Aspirate off the solution from all of the wells. • 4. Fixate the cells with 100 μL 4% formaldehyde/0.25% Triton X-100 PBS per well. • 5. Incubate the plate for 1 hour at 4° C. • 6. Aspirate off the fixing solution and add 300 μL TBS per well. • 7. Leave the plate overnight at 4° C. Day 2: • 1. Wash the plate 2× with 200 μL PBS per well. • 2. Block with 100 μL 5% dried milk in TBS. • 3. Incubate the plate for 20 minutes at 37° C. • 4. Wash the plate 2× with 0.1% tween/H2O. • 5. Add 50 μL of 3 μg/mL primary antibody pERK (Sigma M8159), diluted in 5% milk powder/TBS, to each well. • 6. Incubate the plate for 2 hours at 37° C. • 7. Wash the plate 3× with 0.1% tween/H2O. • 8. Add 50 μL of 0.45 μg/mL secondary Europium-labelled anti-mouse antibody (Perkin Elmer) to each well. • 9. Incubate the plate for 1 hour at 37° C. • 10. Wash the plate 3× with 0.1% tween/H2O. • 11. Add 100 μL enhancement solution (Perkin Elmer) to each well. • 12. Leave the plate for approximately 10 minutes at room temperature before gently shaking the plate. • 13. Read Europium Time Resolved Fluorescence in Victor2. • 14. Wash the plate 2× with 0.1% tween/H2O. • 15. Measure the protein concentration with BCA (Sigma) by adding 200 μL of solution per well. • 16. Incubate the plate for 30 minutes at 37° C. • 17. Read absorbance levels at 570 nm in a plate reader.
Note that Europium counts are normalised for protein levels by dividing counts by absorbance.
Values for the blank (no cells) are subtracted from all values. The DMSO controls are set as 100% activity and assay points (the response) are calculated as a percentage of the DMSO control. Data are plotted using Graphpad Prism software and a non-linear regression line is calculated using a variable slope sigmoidal dose-response equation (Y=Bottom+(Top−Bottom)/(1+10^((LogEC50−X)*HillSlope)) where X is the logarithm of concentration. Y is the response). The IC50 generated by this procedure is the concentration of the drug that produces a percentage control fluorescence value midway between the saturation, and zero-effect plateaus. Three independent assays are usually performed and the mean IC50 is reported.

WM266.4 melanoma cells = assay: SRB Cell Proliferation Assay (SRB GI50); format: cell-based; conditions: Homo sapiens, WM 266-4, 144 h, 6 days growth
Protocol: Biological Methods —SRB Cell Proliferation Assay (SRB GI50)
Cultures of WM266.4 melanoma cells are routinely cultured in DMEM/10% foetal bovine serum, at 37° C., in 5% CO2 water saturated atmosphere. Cultures are maintained in exponential growth phase by sub-culturing before having become confluent (3-5 day intervals). Single cell suspensions are prepared by harvesting an 80 cm^2 tissue culture flask with 5 mL commercial trypsin EDTA. After 5 minutes, the detached cells are mixed with 5 mL fully complemented culture medium and centrifugally pelleted (1000 rpm for 7 minutes). After aspirating the supernatant, the cell pellet is re-suspended in 10 mL fresh medium and the cells fully disaggregated by drawing the whole volume up/down 5 times through a 19-gauge needle. The concentration of the cells is determined using a haemocytometer (1/10 dilution). A suitable volume to give at least a 2-fold excess for the number of tests being conducted, typically 100-200 mL, is prepared by diluting the cell suspension to 10,000/mL, and 100 μL/well dispensed into 96 well plates using a programmable 8-channel peristaltic pump, giving 1000 cells/well, leaving column 12 blank. The plates are returned to the incubator for 24 hours to allow the cells to re-attach.
The compounds being tested are prepared at 20 mM in dimethylsulphoxide. Aliquots (200 μL) are diluted into 20 mL culture medium giving 200 μM, and 10 serial dilutions of 3× performed by transferring 5 mL to 10 mL. Aliquots (100 μL) of each dilution are added to the wells, using an 8-channel pipettor, thus performing a final further 2× dilution, and giving doses ranging from 100 μM to 0.005 μM. Column 11 receives plain culture medium only. Each compound is tested in quadruplicate, each replicate being the average of four wells, and two plates per compound.
After a further 6 days growth, the plates are emptied, and the cells are fixed in 10% trichloroacteic acid for 10 minutes on ice. After thorough rinsing in running tap water, the plates are dried, and stained by adding 50 μL of a solution of 0.1% sulphorhodamine-B in 1% acetic acid, for 10 minutes at room temperature. The stain is poured out and the plates thoroughly rinsed under a stream of 1% acetic acid, thus removing unbound stain, and dried. The bound stain is taken into solution by addition of 150 μL Tris buffer pH 8, followed by 10 minutes on a plate-shaker (approximately 500 rpm). The absorbance at 540 nm in each well (being proportional to the number of cells present) is determined using a plate reader.
After averaging the results in rows A-D and E-H, the blank value (row 12) is subtracted, and results expressed as percentage of the untreated value (row 11). […] The GI50 generated by this procedure is the concentration of the drug that produces a percentage control A540 midway between the saturation, and zero-effect plateaus.

T1 sequence (P15056 whole entry V600E): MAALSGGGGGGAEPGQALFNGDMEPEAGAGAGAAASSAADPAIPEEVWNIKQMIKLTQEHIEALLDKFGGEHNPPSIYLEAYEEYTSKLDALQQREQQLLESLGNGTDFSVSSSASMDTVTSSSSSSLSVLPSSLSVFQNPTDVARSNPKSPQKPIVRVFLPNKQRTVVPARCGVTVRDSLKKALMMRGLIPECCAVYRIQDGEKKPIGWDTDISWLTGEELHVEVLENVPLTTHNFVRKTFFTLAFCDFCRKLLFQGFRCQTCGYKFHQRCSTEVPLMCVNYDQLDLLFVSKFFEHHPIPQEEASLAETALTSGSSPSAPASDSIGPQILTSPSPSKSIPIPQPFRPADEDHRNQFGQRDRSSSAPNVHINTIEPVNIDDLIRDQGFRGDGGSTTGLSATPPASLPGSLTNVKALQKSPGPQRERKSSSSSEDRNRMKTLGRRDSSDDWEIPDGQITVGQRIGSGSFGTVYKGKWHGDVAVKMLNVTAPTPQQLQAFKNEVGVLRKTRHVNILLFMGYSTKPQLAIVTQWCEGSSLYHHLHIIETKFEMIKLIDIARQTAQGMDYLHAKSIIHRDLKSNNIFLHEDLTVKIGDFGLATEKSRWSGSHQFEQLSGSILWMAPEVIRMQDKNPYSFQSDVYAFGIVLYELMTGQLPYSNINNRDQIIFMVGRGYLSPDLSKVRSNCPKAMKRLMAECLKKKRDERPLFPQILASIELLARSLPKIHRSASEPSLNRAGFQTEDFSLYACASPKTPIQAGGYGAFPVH

IC50 (B-RAF) [nM] | IC50 (pERK) [nM] | GI50 (WM266.4 melanoma cells) [nM] | Structure (SMILES)
100 to 1000 | 1000 to 10000 | 1000 to 10000 | Cc1ccc(-n2nc(C(C)(C)C)cc2NC(=O)Nc2ccc(Oc3ccnc4nc(CBr)c(=O)[nH]c34)cc2F)cc1 [AA-058, 1-(4-(3-(bromomethyl)-2-oxo-1,2-dihydropyrido[2,3-b]pyrazin-8-yloxy)-2-fluorophenyl)-3-(3-tert-butyl-1-p-tolyl-1H-pyrazol-5-yl)urea]
< 100 | < 1000 | < 1000 | Cc1ccc(-n2nc(C(C)(C)C)cc2NC(=O)Nc2ccc(Oc3ccnc4[nH]c(=O)c(=O)[nH]c34)cc2F)cc1 [AA-074, 1-(3-Tert-butyl-1-p-tolyl-1H-pyrazol-5-yl)-3-(4-(2,3-dioxo-1,2,3,4-tetrahydropyrido[3,2-b]pyrazin-8-yloxy)-2-fluorophenyl)urea]
< 100 | 1000 to 10000 | 1000 to 10000 | COCn1nc(C(C)(C)C)cc1NC(=O)Nc1ccc(Oc2ccnc3[nH]c(=O)cnc23)cc1F [AA-098, 1-(3-Tert-butyl-1-(methoxymethyl)-1H-pyrazol-5-yl)-3-(2-fluoro-4-(3-oxo-3,4-dihydropyrido[3,2-b]pyrazin-8-yloxy)phenyl)urea]
< 100 | < 1000 | < 1000 | CSc1cc(Oc2ccnc3[nH]c(=O)c(C)nc23)ccc1NC(=O)Nc1cc(C(F)(F)F)ccc1F [AA-060, 1-(2-fluoro-5-(trifluoromethyl)phenyl)-3-(4-(2-methyl-3-oxo-3,4-dihydropyrido[2,3-b]pyrazin-8-yloxy)-2-(methylthio)phenyl)urea]
100 to 1000 | < 1000 | < 1000 | Cc1ccc(-n2nc(C(C)(C)C)cc2NC(=O)Nc2ccc(Oc3ccnc4[nH]c(=O)c(N)nc34)c3ccccc23)cc1 [AA-077, 1-(4-(2-amino-3-oxo-3,4-dihydropyrido[2,3-b]pyrazin-8-yloxy)naphthalen-1-yl)-3-(3-tert-butyl-1-p-tolyl-1H-pyrazol-5-yl)urea]
100 to 1000 | < 1000 | < 1000 | Cc1ccc(-n2nc(C(C)(C)C)cc2NC(=O)Nc2ccc(Oc3ccnc4[nH]c(=O)cnc34)cc2F)cn1 [AA-084, 1-(3-tert-butyl-1-(6-methylpyridin-3-yl)-1H-pyrazol-5-yl)-3-(2-fluoro-4-(3-oxo-3,4-dihydropyrido[3,2-b]pyrazin-8-yloxy)phenyl)urea]
< 100 | 1000 to 10000 | 1000 to 10000 | O=C(Nc1cncc(C(F)(F)F)c1)Nc1ccc(Oc2ccnc3[nH]c(=O)cnc23)cc1F [AA-069, 1-(2-fluoro-4-(3-oxo-3,4-dihydropyrido[2,3-b]pyrazin-8-yloxy)phenyl)-3-(5-(trifluoromethyl)pyridin-3-yl)urea]
100 to 1000 | < 1000 | < 1000 | CC(C)(C)c1cc(NC(=O)Nc2ccc(Oc3ccnc4nc(N5CCOCC5)cnc34)cc2F)n(-c2ccccc2)n1 [AA-071, 1-(3-Tert-butyl-1-phenyl-1H-pyrazol-5-yl)-3-(2-fluoro-4-(3-morpholinopyrido[3,2-b]pyrazin-8-yloxy)phenyl)urea]
< 100 | < 1000 | 1000 to 10000 | O=C(Nc1ccc(Oc2ccnc3[nH]c(=O)cnc23)cc1F)Nc1cc(C(F)(F)F)ccc1-n1cccn1 [AA-094, 1-(2-(1H-pyrazol-1-yl)-5-(trifluoromethyl)phenyl)-3-(2-fluoro-4-(3-oxo-3,4-dihydropyrido[3,2-b]pyrazin-8-yloxy)phenyl)urea]
< 100 | < 1000 | < 1000 | COc1ccc(-n2nc(C(C)(C)C)cc2NC(=O)Nc2ccc(Oc3ccnc4[nH]c(=O)cnc34)cc2F)cn1 [AA-062, 1-(3-tert-butyl-1-(6-methoxypyridin-3-yl)-1H-pyrazol-5-yl)-3-(2-fluoro-4-(3-oxo-3,4-dihydropyrido[2,3-b]pyrazin-8-yloxy)phenyl)urea]
< 100 | < 1000 | < 1000 | COc1ccc(-n2nc(C(C)(C)C)cc2NC(=O)Nc2ccc(Oc3ccnc4[nH]c(=O)cnc34)cc2SC)cn1 [AA-063, 1-(3-tert-butyl-1-(6-methoxypyridin-3-yl)-1H-pyrazol-5-yl)-3-(2-(methylthio)-4-(3-oxo-3,4-dihydropyrido[2,3-b]pyrazin-8-yloxy)phenyl)urea]
< 100 | < 1000 | 1000 to 10000 | O=C(Nc1ccc(Oc2ccnc3[nH]c(=O)c(=O)[nH]c23)cc1F)Nc1cc(C(F)(F)F)ccc1F [AA-072, 1-(4-(2,3-Dioxo-1,2,3,4-tetrahydropyrido[3,2-b]pyrazin-8-yloxy)-2-fluorophenyl)-3-(2-fluoro-5-(trifluoromethyl)phenyl)urea]
< 100 | < 1000 | 1000 to 10000 | C=CCn1nc(C(C)(C)C)cc1NC(=O)Nc1ccc(Oc2ccnc3[nH]c(=O)cnc23)cc1F [AA-095, 5-[(4-amino-2-fluorophenyl-oxy)carbonylamino-5-(1-N-allyl-3-t-butyl-imidazolyl)]-pyridin-[2, 3]-3-pyrazin-2-one]
100 to 1000 | < 1000 | < 1000 | Cc1ccc(-n2nc(C(C)(C)C)cc2NC(=O)Nc2ccc(Oc3ccnc4[nH]c(=O)c(N)nc34)cc2F)cc1 [AA-057, 1-(4-(2-amino-3-oxo-3,4-dihydropyrido[2,3-b]pyrazin-8-yloxy)-2-fluorophenyl)-3-(3-tert-butyl-1-p-tolyl-1H-pyrazol-5-yl)urea]
< 100 | < 1000 | < 1000 | CC(C)(C)c1cc(NC(=O)Nc2cccc(Oc3ccnc4[nH]c(=O)cnc34)c2)n(-c2ccccc2)n1 [AA-075, 1-(3-tert-butyl-1-phenyl-1H-pyrazol-5-yl)-3-(3-(3-oxo-3,4-dihydropyrido[2,3-b]pyrazin-8-yloxy)phenyl)urea]
< 100 | < 1000 | < 1000 | Nc1nc2nccc(Oc3ccc(NC(=O)Nc4cc(C(F)(F)F)ccc4F)c4ccccc34)c2[nH]c1=O [AA-079, 1-(4-(3-amino-2-oxo-1,2-dihydropyrido[2,3-b]pyrazin-8-yloxy)naphthalen-1-yl)-3-(2-fluoro-5-(trifluoromethyl)phenyl)urea]

— patent publication US8198279B2, “Pyrido[2,3-b]pyrazin-8-substituted compounds and their use” (Institute of Cancer Research: Royal Cancer Hospital (The), priority 2007, dated 2012)
